# Earlier results, collected in PMC9299415 (Molecular Neurobiology, 2022).
# Key:
# SARS-CoV-2 = settings: rhesus macaque model, ref [18]
compound,measurement,setting,value
"CCN1C[C@]2(COC(=O)c3ccccc3N3C(=O)C[C@H](C)C3=O)CC[C@H](OC)[C@@]34[C@@H]5C[C@H]6[C@H](OC)[C@@H]5[C@](O)(C[C@@H]6OC)[C@@](O)([C@@H](OC)[C@H]23)[C@@H]14 [MLA, methyllycaconitine]",agonist/antagonist type at α7,α7 nAChR,reversible competitive α7 antagonist
"COc1cc(OC)c(NC(=O)Nc2cc(C)on2)cc1Cl [PNU-120596, N-(5-Chloro-2,4-dimethoxyphenyl)-N’-(5-methyl-3-isoxazolyl)-urea]",channel activation by PNU-120596 by itself,α7 nAChR,cannot induce channel activation
c1cnc2cc3c(cc2n1)[C@@H]1CNC[C@H]3C1 [varenicline],agonist/antagonist type at α7,α7 nAChR,full agonist
same,infectivity and disease progression,SARS-CoV-2,reduces infectivity and disease progression
"Oc1ccc2[nH]ccc2c1 [5-HI, 5-hydroxyindole]",potentiation efficacy compared with PNU-120596,α7 nAChR,lower efficacy than PNU-120596
same,recovery of receptors from desensitization,α7 nAChR,does not produce significant recovery of receptors from desensitization
